# Test results reported in patent publication US7521192B2, “EDG: modulators of lymphocyte activation and migration” (Rigel Pharmaceuticals, Inc., priority 2001, dated 2009).
# Entries after “also recorded” stand apart in the source; their conditions may differ.
# What was measured:
# EDG-1 [1] = target: T1, EDG-1 (Homo sapiens, UniProt P21453); assay: EDG-1 mediated SPP-induced lymphocyte migration; assay type: cell-based; conditions: lymphocytes migrating toward ligand from upper to lower chamber
# T1 sequence (P21453 whole entry): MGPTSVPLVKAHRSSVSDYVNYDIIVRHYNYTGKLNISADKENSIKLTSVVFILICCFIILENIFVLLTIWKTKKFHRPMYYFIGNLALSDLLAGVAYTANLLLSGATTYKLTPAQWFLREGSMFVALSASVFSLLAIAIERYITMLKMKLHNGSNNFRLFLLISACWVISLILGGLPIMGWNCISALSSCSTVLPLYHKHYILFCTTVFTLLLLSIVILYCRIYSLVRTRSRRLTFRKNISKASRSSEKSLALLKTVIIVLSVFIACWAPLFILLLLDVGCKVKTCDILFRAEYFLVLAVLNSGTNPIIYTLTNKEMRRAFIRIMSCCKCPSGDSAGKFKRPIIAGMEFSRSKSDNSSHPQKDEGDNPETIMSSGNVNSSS
# Description: (§1) “Lymphocyte migration” refers to migration of B and T lymphocytes to and from primary and secondary lymphoid organs (e.g., bone marrow, thymus, lymph nodes, spleen, Peyer's patch, and tonsils), the periphery, and non-lymphoid tissues via the blood stream, lymphatic vessels, and by penetration of capillary walls (see, e.g., Paul, Immunology (3rd ed., 1993) (Chapters 4 and 6)). […] SPP and LPA are present in serum and are produced by a number of cells, including platelets and fibroblasts. Ligand-induced lymphocyte migration can be measured using the assay described in FIG. 33A, in which lymphocytes migrate toward the ligand from an upper to a lower chamber.
# (§2) As described above, in one embodiment, lymphocyte activation is measured by contacting T cells comprising an EDG target with a potential modulator and activating the cells with an anti-TCR antibody. Modulation of T cell activation is identified by screening for cell surface marker expression, e.g., CD69 expression levels, using fluorescent antibodies and FACS sorting. In another embodiment, lymphocyte migration is measured by observing T cell migration from an upper to a lower chamber containing an EDG ligand such as SPP.
# primary T cell = assay: SPP-induced primary T cell migration; assay type: cell-based; conditions: primary T cells
# Description: (§3) “Lymphocyte migration” refers to migration of B and T lymphocytes to and from primary and secondary lymphoid organs (e.g., bone marrow, thymus, lymph nodes, spleen, Peyer's patch, and tonsils), the periphery, and non-lymphoid tissues via the blood stream, lymphatic vessels, and by penetration of capillary walls (see, e.g., Paul, Immunology (3rd ed., 1993) (Chapters 4 and 6)). […] SPP and LPA are present in serum and are produced by a number of cells, including platelets and fibroblasts. Ligand-induced lymphocyte migration can be measured using the assay described in FIG. 33A, in which lymphocytes migrate toward the ligand from an upper to a lower chamber. The sphingolipid analog compound 2-amino-2(2-[4-octylphenyl]ethyl)-1,3-propanediol hydrochloride and analogs thereof inhibit such migration. The C-terminus of EDG-1 appears to be involved in migration. Such domains (e.g., the cytoplasmic tail of EDG-1) can be used in high throughput binding assays for compounds that modulate lymphocyte migration.
# as §2, with “Modulation of T cell activation is identified by screening for cell surface marker expression, e.g., CD69 expression levels, using fluorescent antibodies and FACS sorting.” left out
# Jurkat cells [2] = assay: SPP-induced migration assay in Jurkat cells; assay type: cell-based, human
# Description: as §3
# as §2, with “Modulation of T cell activation is identified by screening for cell surface marker expression, e.g., CD69 expression levels, using fluorescent antibodies and FACS sorting.” left out
# EDG-1 [3] = target: T1, EDG-1; assay: EDG-1 wild-type enhanced SPP-induced migration in Jurkat cells; assay type: cell-based; conditions: Jurkat cells expressing EDG-1 wild-type
# Description: as §1, §2
# EDG-1 [4] = target: T1, EDG-1; assay: EDG-1 wild-type induced CD69 inhibition in Jurkat cells; assay type: cell-based; conditions: Jurkat cells expressing EDG-1 wild-type
# Protocol: Stimulation: For CD69 upregulation experiments, tTA-Jurkat cells were split to 2.5×10^5 cells/ml 24 hours prior to stimulation. Cells were spun and resuspended at 5×10^5 cells/ml in fresh complete RPMI medium in the presence of 100 ng/ml [MUT] (anti-Jurkat clonotypic TCR) or 5 ng/ml PMA hybridoma supernatant for 20-26 hours at 37° C., and then assayed for surface CD69 expression. Cell surface marker analysis: Jurkat-N cells were stained with an APC-conjugated mouse monoclonal anti-human CD69 antibody (Caltag) at 4° C. for 20 minutes and analyzed using a Facscalibur instrument (Becton Dickinson) with Cellquest software. Cell sorts were performed on a MoFlo (Cytomation).
# EDG-1 [5] = target: T1, EDG-1; assay: anti-BCR induced CD69 upregulation in BJAB cells expressing TIG-EDG-1 constructs; assay type: cell-based
# EDG-1 [6] = assay: as above; assay type: cell-based
# BJAB cells = assay: anti-BCR-induced CD69 upregulation in naive BJAB cells; assay type: cell-based
# Jurkat cells [7] = assay: anti-TCR-induced CD69 upregulation in naive Jurkat cells; assay type: cell-based, human
# Protocol: Stimulation: For CD69 upregulation experiments, tTA-Jurkat cells were split to 2.5×10^5 cells/ml 24 hours prior to stimulation. Cells were spun and resuspended at 5×10^5 cells/ml in fresh complete RPMI medium in the presence of 100 ng/ml […] (anti-Jurkat clonotypic TCR) or 5 ng/ml PMA hybridoma supernatant for 20-26 hours at 37° C., and then assayed for surface CD69 expression. Cell surface marker analysis: Jurkat-N cells were stained with an APC-conjugated mouse monoclonal anti-human CD69 antibody (Caltag) at 4° C. for 20 minutes and analyzed using a Facscalibur instrument (Becton Dickinson) with Cellquest software. Cell sorts were performed on a MoFlo (Cytomation).
SMILES,"effect on EDG-1 mediated SPP-induced (ligand-induced) lymphocyte migration (EDG-1 [1]; listed as 2-amino-2(2-[4-octylphenyl]ethyl)-1,3-propanediol hydrochloride)",effect on EDG-1 mediated SPP-induced (ligand-induced) lymphocyte migration (EDG-1 [1]; hydrochloride),effect on SPP-induced primary T cell migration (primary T cell),effect on SPP-induced migration (Jurkat cells [2]; Jurkat cells),effect on EDG-1 wild-type enhanced SPP-induced migration (EDG-1 [3]),effect on EDG-1 wild-type induced CD69 inhibition (EDG-1 [4]),effect on wild-type EDG-1 inhibition of anti-BCR induced CD69 upregulation (EDG-1 [5]; BJAB cells expressing wild-type EDG-1),"dose dependence of wild-type EDG-1 inhibition of anti-BCR induced CD69 upregulation (EDG-1 [5]; cells overexpressing wild-type EDG-1, SPP added)",effect on anti-BCR induced CD69 upregulation (EDG-1 [6]; BJAB cells expressing TIG vector),"effect on the inhibition of EDG-1 mediated anti-BCR induced CD69 upregulation (EDG-1 [6]; BJAB cells, FIGS. 29 and 30)",migration of Jurkat cells (Jurkat cells [2]; Jurkat cells migrating toward ligand),effect on anti-BCR-induced CD69 upregulation (BJAB cells; in the presence of CS-FBS),effect on anti-BCR-induced CD69 upregulation (BJAB cells; regular serum),effect on anti-TCR-induced CD69 upregulation (Jurkat cells [7]; in the presence of CS-FBS),effect on anti-TCR-induced CD69 upregulation (Jurkat cells [7]; regular serum)
"CCCCCCCCc1ccc(CCC(N)(CO)CO)cc1.Cl [FTY720, 2-amino-2(2-[4-octylphenyl]ethyl)-1,3-propanediol hydrochloride]",inhibit,blocked,inhibits,no effect,inhibits,no effect,,,,,,,,,
"CCCCCCCCCCCCC/C=C/[C@@H](O)[C@@H](N)COP(=O)(O)O [SPP, sphingosine-1-phosphate]",,,,,,,potentiates,dose-dependent manner; also recorded: dose dependent manner,no effect,no effect,induced migration,no effect,no effect,no effect,no effect
